According to patent US11730743B2, “Protection of cells from degeneration and treatment of geographic atrophy” (University of Kentucky Research Foundation, priority 2012, dated 2023):
The star is where a group is joined. Cbz = O=C(OCc1ccccc1)*; CH2F = FC*

Key:
mice = assay: RPE degeneration induced by intravitreous recombinant IL-18; assay type: in vivo; conditions: wild-type mice; inhibitor intravitreous
Experimental: (§1) Fundus photography. Retinal photographs of dilated mouse eyes were taken with a TRC-50 IX camera (Topcon) linked to a digital imaging system (Sony).
(§2) Immunolabeling. Human eyes fixed in 2-4% paraformaldehyde were prepared as eyecups, cryoprotected in 30% sucrose, embedded in optimal cutting temperature compound (Tissue-Tek OCT; Sakura Finetek), and cryosectioned into 10 μm sections. Depigmentation was achieved using 0.25% potassium permanganate and 0.1% oxalic acid. Immunohistochemical staining was performed with the rabbit antibody against NLRP3 (1:100, Sigma Aldrich) or rabbit antibody against Caspase-1 (prediluted, AbCam). Isotype IgG was substituted for the primary antibody to assess the specificity of the staining. Bound antibody was detected with biotin-conjugated secondary antibodies, followed by incubation with ABC reagent and visualized by Vector Blue (Vector Laboratories). Levamisole (Vector Laboratories) was used to block endogenous alkaline phosphatase activity. Slides were washed in PBS, counterstained with neutral red (Fisher Scientific), rinsed with deionized water, air dried, and then mounted in Vectamount (Vector Laboratories). Fluorescent labeling of human tissue was performed with the rabbit antibody against PYCARD (1:50, Clone N-15, Santa Cruz Biotechnology). Immunolabeling was visualized by fluorescently conjugated anti-rabbit secondary antibody (Invitrogen). Tissue autofluorescence was quenched by incubating the sections in 0.3% Sudan black (Fisher Scientific). Sections were mounted in Vectashield with DAPI (Vector Laboratories). Mouse RPE/choroid flat mounts were fixed with 4% paraformaldehyde or 100% methanol, stained with rabbit antibodies against human zonula occludens-1 (1:100, Invitrogen) and visualized with Alexa594 (Invitrogen). All images were obtained using the Leica SP-5 or Zeiss Axio Observer Z1 microscopes. […]

Dicer1f/f mice = assay: RPE degeneration induced by subretinal AAV1-BEST1-Cre (DICER1 loss); assay type: in vivo; conditions: inhibitor intravitreous
Experimental: as §2, with “Scientific).” for “Scientific). Sections were mounted in Vectashield with DAPI (Vector Laboratories). Mouse RPE/choroid flat mounts were fixed with 4% paraformaldehyde or 100% methanol, stained with rabbit antibodies against human zonula occludens-1 (1:100, Invitrogen) and visualized with Alexa594 (Invitrogen). All images were obtained using the Leica SP-5 or Zeiss Axio Observer Z1 microscopes.”

IL-18 = assay: Western blot of IL-18 maturation in RPE cell lysates of wild-type mice; assay type: in vivo; conditions: inhibitor intravitreous
Experimental: (§3) Drug treatments. siRNAs formulated in siRNA buffer (20 mM KCL, 0.2 mM MgCl2 in HEPES buffer at pH 7.5; Dharmacon) or phosphate buffered saline (PBS; Sigma-Aldrich); the TLR4 antagonist Ultra Pure Rhodobacter sphaeroides LPS (LPS-RS, InvivoGen), a peptide inhibitor of MyD88 homodimerization IMG-2005 (IMGENEX), control inhibitor (IMGENEX), recombinant IL-18 (Medical & Biological Laboratories), neutralizing rat antibodies against mouse IL-1β (IMGENEX), neutralizing rat antibodies against mouse IL-18 (Medical & Biological Laboratories), isotype control IgGs (R&D Systems or eBioscience as appropriate), Caspase-1 inhibitor Z-WEHD-FMK (R&D Systems), Caspase-3 inhibitor Z-DEVD-FMK (R&D Systems), Caspase control inhibitor Z-FA-FMK (R&D Systems), (2R,4R)-APDC (Enzo Life Sciences), Glipizide (Sigma-Aldrich), Glyburide (Sigma-Aldrich), and P2X7 receptor antagonist A438079 (Tocris Bioscience) were dissolved in phosphate buffered saline (PBS; Sigma-Aldrich) or dimethyl sulfoxide (DMSO; Sigma-Aldrich), and injected into the vitreous humor in a total volume of 1 μL with a 33-gauge Exmire microsyringe (Ito Corporation). […]
Western blotting. […] Protein concentrations were determined using a Bradford assay kit (Bio-Rad) with bovine serum albumin as a standard. […] Protein loading was assessed by immunoblotting using an anti-Vinculin antibody (1:1,000; Sigma-Aldrich). […]

wild-type mice = assay: Alu RNA- or pAlu-induced RPE degeneration after subretinal injection (fundus photographs, ZO-1 flat mounts); assay type: in vivo; conditions: subretinal pAlu, test agent intravitreous
Experimental: Subretinal injection and imaging. Subretinal injections (1 μL) in mice were performed using a Pico-Injector (PLI-100, Harvard Apparatus). In vivo transfection of plasmids was achieved using 10% Neuroporter (Genlantis). Fundus imaging was performed on a TRC-50 IX camera (Topcon) linked to a digital imaging system (Sony). Immunolabeling of RPE flat mounts was performed using antibodies against human zonula occludens-1 (Invitrogen).
as §1
Immunolabeling. Human eyes fixed in 2-4% paraformaldehyde were prepared as eyecups, cryoprotected in 30% sucrose, embedded in optimal cutting temperature compound (Tissue-Tek OCT; Sakura Finetek), and cryosectioned into 10 μm sections. Depigmentation was achieved using 0.25% potassium permanganate and 0.1% oxalic acid. Immunohistochemical staining was performed with the rabbit antibody against NLRP3 (1:100, Sigma Aldrich) or rabbit antibody against Caspase-1 (prediluted, AbCam). Isotype IgG was substituted for the primary antibody to assess the specificity of the staining. Bound antibody was detected with biotin-conjugated secondary antibodies, followed by incubation with ABC reagent and visualized by Vector Blue (Vector Laboratories). Levamisole (Vector Laboratories) was used to block endogenous alkaline phosphatase activity. Slides were washed in PBS, counterstained with neutral red (Fisher Scientific), rinsed with deionized water, air dried, and then mounted in Vectamount (Vector Laboratories). Fluorescent labeling of human tissue was performed with the rabbit antibody against PYCARD (1:50, Clone N-15, Santa Cruz Biotechnology). Immunolabeling was visualized by fluorescently conjugated anti-rabbit secondary antibody (Invitrogen). Tissue autofluorescence was quenched by incubating the sections in 0.3% Sudan black (Fisher Scientific). Sections were mounted in Vectashield with DAPI (Vector Laboratories). Mouse RPE/choroid flat mounts were fixed with 4% paraformaldehyde or 100% methanol, stained with rabbit antibodies against human zonula occludens-1 (1:100, Invitrogen) and visualized with Alexa594 (Invitrogen). All images were obtained using the Leica SP-5 or Zeiss Axio Observer Z1 microscopes.
Subretinal injection. Subretinal injections (1 μL) in mice were performed using a Pico-Injector (PLI-100, Harvard Apparatus). In vivo transfection of plasmids coding for two different Alu sequences (pAlu) or empty control vector (pNull) (Bennett et al., 2008; Kaneko et al., 2011; Shaikh et al., 1997) was achieved using 10% Neuroporter (Genlantis). AAV1-BEST1-Cre (Alexander and Hauswirth, 2008) or AAV1-BEST1-GFP were injected at […] pfu/mL and in vitro transcribed Alu RNA was injected at 0.3 mg/mL.
as §3

IRAK1/4 = assay: Western blot of phosphorylated IRAK1/4 in human RPE cells; assay type: cell-based; conditions: normalized to Vinculin
Experimental: (§4) Protein abundance and activity. Protein abundance was assessed by Western blot analysis using primary antibodies recognizing Caspase-1 (1:500; Invitrogen), pIRAK1 (1:500; Thermo Scientific), pIRAK4 (1:500, Abbomax, Inc), PYCARD (1:200, Santa Cruz Biotechnology), NLRP3 (1:500, Enzo Life Sciences) and Vinculin (1:1,000; Sigma-Aldrich). Caspase-1 activity was visualized using Caspalux1 E1D2 (OncoImmunin) reagent according to the manufacturer's instructions.
Western blotting. Tissues or cells were homogenized in lysis buffer (10 mM Tris base, pH 7.4, 150 mM NaCl, 1 mM EDTA, 1 mM EGTA, 1% Triton X-100, 0.5% NP-40, protease and phosphatase inhibitor cocktail (Roche)). Protein concentrations were determined using a Bradford assay kit (Bio-Rad) with bovine serum albumin as a standard. Proteins (40-100 μg) were run on NuPAGE Bis-Tris gels (Invitrogen) and transferred to Immun-Blot PVDF membranes (Bio-Rad). Cells were scraped in hot Laemmli buffer (62.5 mM Tris base, pH 6.8, 2% SDS, 5% 2-Mercaptoethanol, 10% Glycerol, 0.01% Bromophenol Blue). Samples were boiled and run on 4-20% NuPAGE Tris-Glycine gels (Invitrogen). […] Protein loading was assessed by immunoblotting using an anti-Vinculin antibody (1:1,000; Sigma-Aldrich). […]

Caspase-1 = target: T1, Caspase-1 (Homo sapiens, UniProt P29466); assay: Caspase-1 activation in cultured cells (western blot p20, Caspalux1 substrate cleavage); assay type: cell-based; conditions: human RPE cells; Caspalux1
T1 construct: endogenous in cells; host or cells: primary human RPE cells; also THP-1 and HeLa cells
T1 sequence (P29466 120-297 limits assumed): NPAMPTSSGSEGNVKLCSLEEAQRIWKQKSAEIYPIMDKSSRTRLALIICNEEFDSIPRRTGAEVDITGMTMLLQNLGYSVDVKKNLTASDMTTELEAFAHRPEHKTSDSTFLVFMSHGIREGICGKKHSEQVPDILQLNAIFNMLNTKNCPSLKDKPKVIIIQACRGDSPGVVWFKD
T1 sequence (P29466 317-404 limits assumed): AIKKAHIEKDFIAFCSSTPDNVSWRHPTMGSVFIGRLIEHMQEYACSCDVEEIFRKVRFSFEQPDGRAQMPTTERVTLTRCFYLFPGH
Experimental: as §4
Western blotting. Tissues or cells were homogenized in lysis buffer (10 mM Tris base, pH 7.4, 150 mM NaCl, 1 mM EDTA, 1 mM EGTA, 1% Triton X-100, 0.5% NP-40, protease and phosphatase inhibitor cocktail (Roche)). Protein concentrations were determined using a Bradford assay kit (Bio-Rad) with bovine serum albumin as a standard. Proteins (40-100 μg) were run on NuPAGE Bis-Tris gels (Invitrogen) and transferred to Immun-Blot PVDF membranes (Bio-Rad). Cells were scraped in hot Laemmli buffer (62.5 mM Tris base, pH 6.8, 2% SDS, 5% 2-Mercaptoethanol, 10% Glycerol, 0.01% Bromophenol Blue). Samples were boiled and run on 4-20% NuPAGE Tris-Glycine gels (Invitrogen). The transferred membranes were blocked for 1 h at RT and incubated with antibodies against human Caspase-1 (1:500; Invitrogen), mouse Caspase1 (1:500; MBL), NLRP3 (1:1000; Enzo Life Sciences), PYCARD (1:1000, RayBiotech), phospho-IRAK1 (S376) (1:500, Thermo Scientific), phospho-IRAK4 (T345) (1:500, AbboMax), DICER1 (1:2,000; Bethyl), MyD88 (1:1,000; Cell Signaling), and mouse IL-18 (1:200; MBL) at 4° C. overnight. Protein loading was assessed by immunoblotting using an anti-Vinculin antibody (1:1,000; Sigma-Aldrich). The secondary antibodies were used (1:5,000) for 1 h at RT. […]
Caspase-1 activity. […] Caspalux1E1D2 signal was quantified reading the fluorescence (excitation 552 nm, emission 580 nm) using a Synergy 4 reader (Biotek). Quantification of fluorescence from images was performed by converting images into grayscale in Adobe Photoshop CS5, and measuring the integrated density of black and white images using ImageJ software (NIH) (Bogdanovich et al., 2008).

Molecule | IL-18-induced RPE degeneration (mice) | AAV1-BEST1-Cre-induced RPE degeneration (Dicer1f/f mice) | pAlu-induced IL-18 maturation (IL-18) | pAlu-induced RPE degeneration (wild-type mice) | Alu RNA-induced phosphorylation of IRAK1/4 (IRAK1/4) | Alu RNA-induced fluorescent substrate cleavage (Caspase-1 activity) (Caspase-1)
Z-DEVD-FMK | blocked | – | – | – | – | –
Cbz-WEHD-CH2F | – | blocked | blocked | blocked | reduced | blocked
Clc1cccc(-c2nnnn2Cc2cccnc2)c1Cl [A438079] | – | – | – | blocked | – | –
